Laboratory results from US6479673B1, “Antiretroviral enantiomeric nucleotide analogs” (Institute of Organic Chemistry and Biochemistry of the …, priority 1992, dated 2002).
Values after ≈ are worked out from the molar mass of the structure shown.

system: Moloney murine sarcoma virus (MSV); assay: MSV-induced transformation of C3H/3T3 cells; format: cell-based; conditions: concentration inhibiting MSV-induced cell transformation by 50%
Experimental: The cells were seeded in 1-ml-wells of a 48-well microtiter plate and exposed to 80 PFU (plaque forming units) for 60-90 minutes. Then, the virus was removed and culture medium containing appropriate concentrations of the test compounds were added (1 ml per well). At day 6 post infection, MSV-induced transformation of the cell culture was examined microscopically.

| Compound | EC50 MSV [µg/mL] |
| --- | --- |
| C[C@@H](Cn1cnc2c(N)ncnc21)OCP(=O)(O)O [(S)-PMPA, 9-(S)-(2-Phosphonomethoxypropyl)adenine] | 120 (≈ 418 µM) |
| C[C@@H](Cn1cnc2c(N)nc(N)nc21)OCP(=O)(O)O [(S)-PMPDAP, 9-(S)-(2-Phosphonomethoxypropyl)-2.6-Diaminopurine] | 2.9 (≈ 9.6 µM) |
| C[C@@H](Cn1cnc2c(=O)[nH]c(N)nc21)OCP(=O)(O)O [(S)-PMPG, 9-(S)-(2-Phosphonomethoxypropyl)guanine] | 0.95 (≈ 3.13 µM) |

system: retrovirus replication; assay: Anti-retrovirus activity in vitro (conclusions on HIV and MSV tests); format: cell-based; conditions: not given

| Compound | antiretroviral activity in vitro (in words) |
| --- | --- |
| C[C@@H](Cn1cnc2c(N)ncnc21)OCP(=O)(O)O [(S)-PMPA, 9-(S)-(2-Phosphonomethoxypropyl)adenine] | devoid of marked antiretroviral activity |

system: HIV-1; assay: HIV-1 induced cytopathicity in MT-4 cells; format: cell-based, human immunodeficiency virus type 1; conditions: MT-4 cells; concentration inhibiting HIV-induced cytopathicity by 50%
Experimental: (§1) The activity of the compounds against HIV-1 and HIV-2 induced cytopathicity was examined in human lymphocyte MT-4 cells. […] The infected cell cultures were then incubated at 37° C. for 5 days in a humidified CO2-controlled incubator. Then, the cytopathicity of the virus was examined by determination of MT-4 cell viability by trypan blue dye staining.

| Compound | EC50 HIV-1 [µg/mL] |
| --- | --- |
| C[C@@H](Cn1cnc2c(N)ncnc21)OCP(=O)(O)O [(S)-PMPA, 9-(S)-(2-Phosphonomethoxypropyl)adenine] | 78 (≈ 272 µM) |
| C[C@@H](Cn1cnc2c(N)nc(N)nc21)OCP(=O)(O)O [(S)-PMPDAP, 9-(S)-(2-Phosphonomethoxypropyl)-2.6-Diaminopurine] | 2.0 (≈ 6.62 µM) |
| C[C@@H](Cn1cnc2c(=O)[nH]c(N)nc21)OCP(=O)(O)O [(S)-PMPG, 9-(S)-(2-Phosphonomethoxypropyl)guanine] | 1.2 (≈ 3.96 µM) |

system: HIV-2; assay: HIV-2 induced cytopathicity in MT-4 cells; format: cell-based, human immunodeficiency virus type 2; conditions: MT-4 cells; concentration inhibiting HIV-induced cytopathicity by 50%
Experimental: as §1

| Compound | EC50 HIV-2 [µg/mL] |
| --- | --- |
| C[C@@H](Cn1cnc2c(N)ncnc21)OCP(=O)(O)O [(S)-PMPA, 9-(S)-(2-Phosphonomethoxypropyl)adenine] | 63 (≈ 219 µM) |
| C[C@@H](Cn1cnc2c(N)nc(N)nc21)OCP(=O)(O)O [(S)-PMPDAP, 9-(S)-(2-Phosphonomethoxypropyl)-2.6-Diaminopurine] | 4.0 (≈ 13.2 µM) |
| C[C@@H](Cn1cnc2c(=O)[nH]c(N)nc21)OCP(=O)(O)O [(S)-PMPG, 9-(S)-(2-Phosphonomethoxypropyl)guanine] | 1.3 (≈ 4.29 µM) |

system: Moloney murine sarcoma virus (MSV); assay: MSV infection in newborn NMRI mice, intraperitoneal administration; format: in vivo; conditions: 10 mg/kg single dose i.p.
Experimental: Two gram newborn NMRI mice were injected intramuscularly in the left hind leg with 50 μl of 250-fold diluted stock preparation of Moloney murine sarcoma virus. […] Another group of mice (20 animals) was administered RPMI-1640 medium as placebo. All compounds were solubilized in RPMI-1640 medium. The mice were observed daily for 20 days and the day of tumor initiation and the day of animal death was recorded for each animal. Statistical analyses were performed by calculating the standard deviation.

| Compound | percentage of MSV-infected mice still alive at day 20 post infection | percentage of MSV-infected mice without tumor at day 20 post infection |
| --- | --- | --- |
| Nc1ncnc2c1ncn2CCOCP(=O)(O)O [PMEA] | (43%) | (24%) |

same assay, conditions: 10 mg/kg single dose i.p., NMRI mice

| Compound | Mean day of tumor initiation [days] | Mean day of animal death [days] |
| --- | --- | --- |
| C[C@@H](Cn1cnc2c(N)ncnc21)OCP(=O)(O)O [(S)-PMPA, 9-(S)-(2-Phosphonomethoxypropyl)adenine] | 4.7 ± 0.95 | – |
| Nc1ncnc2c1ncn2CCOCP(=O)(O)O [PMEA] | 9.8 ± 1.9 | 14.2 ± 2.5 |

same assay, conditions: 20 mg/kg single dose i.p.

| Compound | percentage of MSV-infected mice still alive at day 20 post infection | percentage of MSV-infected mice without tumor at day 20 post infection |
| --- | --- | --- |
| Nc1ncnc2c1ncn2CCOCP(=O)(O)O [PMEA] | (66%) | (44%) |

same assay, conditions: 20 mg/kg single dose i.p., NMRI mice

| Compound | Mean day of tumor initiation [days] | Mean day of animal death [days] |
| --- | --- | --- |
| C[C@@H](Cn1cnc2c(N)ncnc21)OCP(=O)(O)O [(S)-PMPA, 9-(S)-(2-Phosphonomethoxypropyl)adenine] | 4.5 ± 0.71 | – |
| Nc1ncnc2c1ncn2CCOCP(=O)(O)O [PMEA] | 10.6 ± 2.0 | 14.7 ± 1.8 |

same assay, conditions: 50 mg/kg single dose i.p.

| Compound | percentage of MSV-infected mice still alive at day 20 post infection | percentage of MSV-infected mice without tumor at day 20 post infection |
| --- | --- | --- |
| Nc1ncnc2c1ncn2CCOCP(=O)(O)O [PMEA] | (90%) | (90%) |

same assay, conditions: 50 mg/kg single dose i.p., NMRI mice

| Compound | Mean day of tumor initiation [days] | Mean day of animal death [days] |
| --- | --- | --- |
| C[C@@H](Cn1cnc2c(N)ncnc21)OCP(=O)(O)O [(S)-PMPA, 9-(S)-(2-Phosphonomethoxypropyl)adenine] | 5.8 ± 0.63 | – |
| Nc1ncnc2c1ncn2CCOCP(=O)(O)O [PMEA] | 9.0 | 16.0 |

same assay, conditions: dose of 50 mg/kg i.p.

| Compound | antiretroviral activity in vivo (in words) |
| --- | --- |
| C[C@@H](Cn1cnc2c(N)ncnc21)OCP(=O)(O)O [(S)-PMPA, 9-(S)-(2-Phosphonomethoxypropyl)adenine] | no marked antiretroviral activity in vivo |

system: C3H/3T3 cells; assay: Microscopic alteration of C3H/3T3 cell culture morphology; format: cell-based, murine; conditions: concentration that results in a microscopic alteration of C3H/3T3 cell culture morphology

| Compound | MIC [µg/mL] |
| --- | --- |
| C[C@@H](Cn1cnc2c(N)ncnc21)OCP(=O)(O)O [(S)-PMPA, 9-(S)-(2-Phosphonomethoxypropyl)adenine] | >100 |
| C[C@@H](Cn1cnc2c(N)nc(N)nc21)OCP(=O)(O)O [(S)-PMPDAP, 9-(S)-(2-Phosphonomethoxypropyl)-2.6-Diaminopurine] | >100 |
| C[C@@H](Cn1cnc2c(=O)[nH]c(N)nc21)OCP(=O)(O)O [(S)-PMPG, 9-(S)-(2-Phosphonomethoxypropyl)guanine] | 8 (≈ 26.4 µM) |
| Nc1ncnc2c1ncn2CCOCP(=O)(O)O [PMEA] | >100 |

system: MT-4 cells; assay: MT-4 cell viability (cytotoxicity); format: cell-based, human; conditions: concentration reducing MT-4 cell viability by 50%
Experimental: The activity of the compounds against HIV-1 and HIV-2 induced cytopathicity was examined in human lymphocyte MT-4 cells. […]. The infected cell cultures were then incubated at 37° C. for 5 days in a humidified CO2-controlled incubator. Then, the cytopathicity of the virus was examined by determination of MT-4 cell viability by trypan blue dye staining. The results are summarized in Table 1 in comparison with the data on the prototype compounds.

| Compound | CC50 [µg/mL] |
| --- | --- |
| C[C@@H](Cn1cnc2c(N)ncnc21)OCP(=O)(O)O [(S)-PMPA, 9-(S)-(2-Phosphonomethoxypropyl)adenine] | >100 |
| C[C@@H](Cn1cnc2c(N)nc(N)nc21)OCP(=O)(O)O [(S)-PMPDAP, 9-(S)-(2-Phosphonomethoxypropyl)-2.6-Diaminopurine] | >100 |
| C[C@@H](Cn1cnc2c(=O)[nH]c(N)nc21)OCP(=O)(O)O [(S)-PMPG, 9-(S)-(2-Phosphonomethoxypropyl)guanine] | 45 (≈ 148 µM) |
| Nc1ncnc2c1ncn2CCOCP(=O)(O)O [PMEA] | 67 (≈ 245 µM) |

system: herpes viruses; assay: not given; conditions: racemic mixtures, prior art; cited from earlier work

| Compound | antiherpetic effect (in words) |
| --- | --- |
| C[C@H](Cn1cnc2c(N)ncnc21)OCP(=O)(O)O [PMPA] | devoid of any appreciable antiherpetic effect |
| CC(Cn1cnc2c(=O)[nH]c(N)nc21)OCP(=O)(O)O (stereo not drawn) [PMPG] | appeared due to its substantial cytotoxicity |
